Reference: patent US9062046B2, “Substituted imidazoquinoline derivatives as kinase inhibitors” (Piramal Enterprises Limited, priority 2011, dated 2015)

What was measured:
[1] = system: A2780 (ovarian cell line); experiment: Cytotoxicity assay (propidium iodide assay), A2780; assay type: cell-based; conditions: Homo sapiens, A2780 cells, 48 h treatment
Experimental: (§1) The assay was designed as in the reference, Anticancer Drugs, 2002, 13, 1-8, the disclosure of which is incorporated by reference for the teaching of the assay.
(§2) Cells from cell lines A2780 (ovarian cell line) and PC3 (prostate cell line) (both from ATCC) were seeded at a density of 3000 cells/well in a white opaque 96-well plate. Following incubation at 37° C./5% CO2 for a period of 18-24 h, the cells were treated with various concentrations (stock solution was prepared in DMSO and subsequent dilutions were made in media as per ATCC guidelines) of the test compounds for a period of 48 h. At the end of treatment, the culture medium was discarded, the cells were washed with 1×PBS and 200 μl of 7 μg/ml propidium iodide was added to each well. The plates were frozen at −70° C. overnight. For analysis, the plates were warmed to RT, allowed to thaw and were read in PoleStar fluorimeter with the fluorescence setting. The percentage of viable cells in the non-treated set of wells was considered to be 100 and the percentage viability following treatment was calculated accordingly. IC50 values were calculated from graphs plotted using these percentages.

[2] = system: PC3 (prostate cell line); experiment: Cytotoxicity assay (propidium iodide assay), PC3; assay type: cell-based; conditions: Homo sapiens, PC-3, PC3 cells, 48 h treatment
Experimental: as §1, §2

Row | Compound | inhibition at 1 µM [1] [%] | inhibition at 1 µM [2] [%] | IC50 [1] [µM] | IC50 [2] [µM]
1 | Cn1c(=NC#N)n(-c2ccc(C(C)(C)C#N)nc2)c2c3cc(-c4ccc5ncccc5c4)ccc3ncc21 [Example 56, N-(1-(6-(2-cyanopropan-2-yl)pyridin-3-yl)-3-methyl-8-(quinolin-6-yl)-1H-imidazo[4,5-c]quinolin-2(3H)-ylidene)cyanamide] | ≥ 70 | 30 to 70 | – | –
2 | COc1cc(-c2ccc3ncc4c(c3c2)n(-c2ccc(C(C)(C)C#N)nc2)c(=NC#N)n4C)cc(OC)c1OC [Example 57, N-(1-(6-(2-cyanopropan-2-yl)pyridin-3-yl)-3-methyl-8-(3,4,5-trimethoxyphenyl)-1H-imidazo[4,5-c]quinolin-2(3H)-ylidene)cyanamide] | ≥ 70 | 30 to 70 | – | –
3 | Cn1c(=NC#N)n(-c2ccc(C(C)(C)C#N)nc2)c2c3cc(-c4ccc5ccccc5c4)ccc3ncc21 [Example 62, N-(1-(6-(2-cyanopropan-2-yl)pyridin-3-yl)-3-methyl-8-(naphthalen-2-yl)-1H-imidazo[4,5-c]quinolin-2(3H)-ylidene)cyanamide] | 30 to 70 | 30 to 70 | – | –
4 | Cn1c(=NC#N)n(-c2ccc(C(C)(C)C#N)nc2)c2c3cc(-c4cc(F)cc(F)c4)ccc3ncc21 [Example 63, N-(1-(6-(2-cyanopropan-2-yl)pyridin-3-yl)-8-(3,5-difluorophenyl)-3-methyl-1H-imidazo[4,5-c]quinolin-2(3H)-ylidene)cyanamide] | 30 to 70 | < 30 | – | –
5 | Cn1c(=NC#N)n(-c2ccc(C(C)(C)C#N)nc2)c2c3cc(-c4cccnc4F)ccc3ncc21 [Example 64, N-(1-(6-(2-cyanopropan-2-yl)pyridin-3-yl)-8-(2-fluoropyridin-3-yl)-3-methyl-1H-imidazo[4,5-c]quinolin-2(3H)-ylidene)cyanamide] | 30 to 70 | < 30 | – | –
6 | CC(C)Oc1ccccc1-c1ccc2ncc3c(c2c1)n(-c1ccc(C(C)(C)C#N)nc1)c(=NC#N)n3C [Example 65, N-(1-(6-(2-cyanopropan-2-yl)pyridin-3-yl)-8-(2-isopropoxyphenyl)-3-methyl-1H-imidazo[4,5-c]quinolin-2(3H)-ylidene)cyanamide] | < 30 | < 30 | – | –
7 | COc1ccc(-c2ccc3ncc4c(c3c2)n(-c2ccc(C(C)(C)C#N)nc2)c(=NC#N)n4C)cc1OC [Example 66, N-(1-(6-(2-cyanopropan-2-yl)pyridin-3-yl)-8-(3,4-dimethoxyphenyl)-3-methyl-1H-imidazo[4,5-c]quinolin-2(3H)-ylidene)cyanamide] | ≥ 70 | ≥ 70 | – | –
8 | Cc1ccc(-c2ccc3ncc4c(c3c2)n(-c2ccc(C(C)(C)C#N)nc2)c(=NC#N)n4C)cc1 [Example 67, N-(1-(6-(2-cyanopropan-2-yl)pyridin-3-yl)-3-methyl-8-p-tolyl-1H-imidazo[4,5-c]quinolin-2(3H)-ylidene)cyanamide] | 30 to 70 | 30 to 70 | – | –
9 | Cn1c(=NC#N)n(-c2ccc(C(C)(C)C#N)nc2)c2c3cc(-c4ccc(C(F)(F)F)cc4)ccc3ncc21 [Example 68, N-(1-(6-(2-cyanopropan-2-yl)pyridin-3-yl)-3-methyl-8-(4-(trifluoromethyl)phenyl)-1H-imidazo[4,5-c]quinolin-2(3H)-ylidene)cyanamide] | 30 to 70 | < 30 | – | –
10 | Cn1c(=NC#N)n(-c2ccc(C(C)(C)C#N)nc2)c2c3cc(-c4cccc(C(F)(F)F)c4)ccc3ncc21 [Example 69, N-(1-(6-(2-cyanopropan-2-yl)pyridin-3-yl)-3-methyl-8-(3-(trifluoromethyl)phenyl)-1H-imidazo[4,5-c]quinolin-2(3H)-ylidene)cyanamide] | ≥ 70 | 30 to 70 | – | –
11 | Cn1c(=NC#N)n(-c2ccc(C(C)(C)C#N)nc2)c2c3cc(-c4cncc(CNC(=O)OC(C)(C)C)c4)ccc3ncc21 [Example 71, tert-butyl (5-(2-(cyanoimino)-1-(6-(2-cyanopropan-2-yl)pyridin-3-yl)-3-methyl-2,3-dihydro-1H-imidazo[4,5-c]quinolin-8-yl)pyridin-3-yl)methylcarbamate] | < 30 | < 30 | – | –
12 | Cn1c(=NC#N)n(-c2ccc(C(C)(C)C#N)nc2)c2c3cc(-c4ccc(N5CCN(C(=O)OC(C)(C)C)CC5)nc4)ccc3ncc21 [Example 72, tert-butyl 4-(5-(2-(cyanoimino)-1-(6-(2-cyanopropan-2-yl)pyridin-3-yl)-3-methyl-2,3-dihydro-1H-imidazo[4,5-c]quinolin-8-yl)pyridin-2-yl)piperazine-1-carboxylate] | < 30 | < 30 | – | –
13 | Cn1c(=NC#N)n(-c2ccc(C(C)(C)C#N)nc2)c2c3cc(-c4ccc(F)cc4)ccc3ncc21 [Example 80, N-(1-(6-(2-cyanopropan-2-yl)pyridin-3-yl)-8-(4-fluorophenyl)-3-methyl-1H-imidazo[4,5-c]quinolin-2(3H)-ylidene)cyanamide] | ≥ 70 | 30 to 70 | – | –
14 | Cn1c(=NC#N)n(-c2ccc(C(C)(C)C#N)nc2)c2c3cc(-c4ccncc4)ccc3ncc21 [Example 81, N-(1-(6-(2-cyanopropan-2-yl)pyridin-3-yl)-3-methyl-8-(pyridin-4-yl)-1H-imidazo[4,5-c]quinolin-2(3H)-ylidene)cyanamide] | – | – | ≤ 0.5 | ≤ 0.5
15 | Cn1c(=NC#N)n(-c2ccc(C(C)(C)C#N)nc2)c2c3cc(-c4cccc5ccccc45)ccc3ncc21 [Example 82, N-(1-(6-(2-cyanopropan-2-yl)pyridin-3-yl)-3-methyl-8-(naphthalen-1-yl)-1H-imidazo[4,5-c]quinolin-2(3H)-ylidene)cyanamide] | 30 to 70 | < 30 | – | –
16 | CC(C)(C#N)c1ccc(-n2c(=NC#N)[nH]c3cnc4ccc(-c5cnc(N)c(C(F)(F)F)c5)cc4c32)cc1 [Example 83, N-(8-(6-amino-5-(trifluoromethyl)pyridin-3-yl)-1-(4-(2-cyanopropan-2-yl)phenyl)-1H-imidazo[4,5-c]quinolin-2(3H)-ylidene)cyanamide] | ≥ 70 | 30 to 70 | – | –
17 | COc1ncc(-c2ccc3ncc4c(c3c2)n(-c2ccc(C(C)(C)C#N)cc2)c(=NC#N)n4C)cc1N [Example 84, N-(8-(5-amino-6-methoxypyridin-3-yl)-1-(4-(2-cyanopropan-2-yl)phenyl)-3-methyl-1H-imidazo[4,5-c]quinolin-2(3H)-ylidene)cyanamide] | ≥ 70 | ≥ 70 | – | –
18 | CC(C)(C#N)c1ccc(-n2c(=NC#N)[nH]c3cnc4ccc(-c5cccnc5)cc4c32)cc1 [Example 85, N-(1-(4-(2-cyanopropan-2-yl)phenyl)-8-(pyridin-3-yl)-1H-imidazo[4,5-c]quinolin-2(3H)-ylidene)cyanamide] | < 30 | < 30 | – | –
19 | CCn1c(=NC#N)n(-c2ccc(C(C)(C)C#N)cc2)c2c3cc(-c4cccnc4)ccc3ncc21 [Example 86, N-(1-(4-(2-cyanopropan-2-yl)phenyl)-3-ethyl-8-(pyridin-3-yl)-1H-imidazo[4,5-c]quinolin-2(3H)-ylidene)cyanamide] | ≥ 70 | 30 to 70 | – | –
20 | Cn1c(=NC#N)n(-c2ccc(C(C)(C)C#N)cc2)c2c3cc(-c4cc(C(F)(F)F)ccc4F)ccc3ncc21 [Example 87, N-(1-(4-(2-cyanopropan-2-yl)phenyl)-8-(2-fluoro-5-(trifluoromethyl)phenyl)-3-methyl-1H-imidazo[4,5-c]quinolin-2(3H)-ylidene)cyanamide] | 30 to 70 | < 30 | – | –
21 | COc1cc(-c2ccc3ncc4c(c3c2)n(-c2ccc(C(C)(C)C#N)cc2)c(=NC#N)n4C)cc(OC)c1OC [Example 88, N-(1-(4-(2-cyanopropan-2-yl)phenyl)-3-methyl-8-(3,4,5-trimethoxyphenyl)-1H-imidazo[4,5-c]quinolin-2(3H)-ylidene)cyanamide] | ≥ 70 | 30 to 70 | – | –
22 | Cn1c(=NC#N)n(-c2ccc(C(C)(C)C#N)cc2)c2c3cc(C4=CCN(C(=O)OC(C)(C)C)CC4)ccc3ncc21 [Example 89, tert-butyl 4-(2-(cyanoimino)-1-(4-(2-cyanopropan-2-yl)phenyl)-3-methyl-2,3-dihydro-1H-imidazo[4,5-c]quinolin-8-yl)-5,6-dihydropyridine-1(2H)-carboxylate] | 30 to 70 | < 30 | – | –
23 | Cn1c(=NC#N)n(-c2ccc(C(C)(C)C#N)cc2)c2c3cc(-c4ccc(N5CCOCC5)nc4)ccc3ncc21 [Example 90, N-(1-(4-(2-cyanopropan-2-yl)phenyl)-3-methyl-8-(6-morpholinopyridin-3-yl)-1H-imidazo[4,5-c]quinolin-2(3H)-ylidene)cyanamide] | ≥ 70 | 30 to 70 | – | –
24 | COc1ccc(-c2ccc3ncc4c(c3c2)n(-c2ccc(C(C)(C)C#N)cc2)c(=NC#N)n4C)cn1 [Example 91, N-(1-(4-(2-cyanopropan-2-yl)phenyl)-8-(6-methoxypyridin-3-yl)-3-methyl-1H-imidazo[4,5-c]quinolin-2(3H)-ylidene)cyanamide] | – | – | ≤ 0.5 | ≤ 0.5
25 | Cn1c(=NC#N)n(-c2cncc(-c3ccccc3)c2)c2c3cc(-c4cnc(N)c(C(F)(F)F)c4)ccc3ncc21 [Example 92, N-(8-(6-amino-5-(trifluoromethyl)pyridin-3-yl)-3-methyl-1-(5-phenylpyridin-3-yl)-1H-imidazo[4,5-c]quinolin-2(3H)-ylidene)cyanamide] | – | – | ≤ 0.5 | ≤ 0.5
